Where two headings read alike, the source gives them in different places.
What was measured:
DHL-10 = assay: Cell Titer Glo viability assay, DHL-10, alone or with compound of Formula I (Example 3); settings: for Fold shift: EC50 alone vs +300 nM Compound of Formula I
Description: All procedures were performed at Gilead Sciences, Inc. in Branford, Conn. […] Compound plates were diluted 1:100 in RPMI without serum or additives but containing either 1% DMSO or 3 μM of the compound of Formula I creating a 10× stock. The DLBCL cell line, DHL-10 was plated at 10,000 cells per well in RPMI supplemented with 10% FBS and 100 U/L penicillin-streptomycin. To each well containing cells, 11 μl of 10× compound mixture in serum-free media was added in a final concentration of 0.2% DMSO and cells were incubated at 37° C. in 5% CO2 for 72 hours. Cell viability was assessed using Cell Titer Glo (CTG, Promega, Madison, Wis.) following the manufacturer's protocol on an Envision plate reader (Perkin Elmer, Waltham, Mass.). CTG signals were recorded for individual compound treatments and combinations. EC50 values were determined using a four parameter variable slope model with GraphPad Prism 6.0 software.

Mino = assay: Cell Titer Glo viability assay, Mino; type: cell-based; settings: Homo sapiens, read-out: Inhibition of Viability, EC50
Description: (§1) All procedures were performed at Gilead Sciences, Inc. in Branford, The compound of formula (I), cyclophosphamide, doxorubicin and vincristine sulfate were dissolved in DMSO to prepare stock solutions that were serially diluted three-fold in DMSO in a 96 well plate format at 1000× so the final starting assay concentrations tested would be 10 μM, 200 μM, 10 μM, and 1 μM respectively, for each compound. Compound plates were diluted 1:100 in RPMI without serum or additives creating a 10× stock. Cells were seeded into a 96-well plate at 10,000-20,000 cells per well in 100 μl of growth media appropriate to the cell line supplemented with 100 U/L penicillin-streptomycin. OCI-Ly3, OCI-Ly4 and OCI-Ly7 were grown in Iscove's+20% FBS, OCI-Ly19 was grown in alphaMEM+20% FBS, and all other cell lines were grown in RPMI+10% FBS. To each well, 11 μl of 10× compound was added in a final concentration of 0.1% DMSO and cells were incubated at 37° C. in 5% CO2 for 72 hours. Cell viability was assessed with Cell Titer Glo (Promega, Madison, Wis.) following the manufacturer's protocol on an Envision plate reader (Perkin Elmer, Waltham, Mass.). EC50 values were determined using a four parameter variable slope model with GraphPad Prism 6.0 software. All EC50 values represent mean values of from duplicate dose response curves.

RPMI-8266 = assay: Cell Titer Glo viability assay, RPMI-8266; type: cell-based; settings: read-out: Inhibition of Viability, EC50
Description: as §1

SU-DHL-6 = assay: Cell Titer Glo viability assay, SU-DHL-6; type: cell-based; settings: Homo sapiens, read-out: Inhibition of Viability, EC50
Description: as §1

OCI-LY7 = assay: Cell Titer Glo viability assay, OCI-LY7; type: cell-based; settings: Homo sapiens, read-out: Inhibition of Viability, EC50
Description: as §1

WSU-NHL = assay: Cell Titer Glo viability assay, WSU-NHL; type: cell-based; settings: Homo sapiens, read-out: Inhibition of Viability, EC50
Description: as §1

WSU-FSCCL = assay: Cell Titer Glo viability assay, WSU-FSCCL; type: cell-based; settings: read-out: Inhibition of Viability, EC50
Description: as §1

KMS-11 = assay: Cell Titer Glo viability assay, KMS-11; type: cell-based; settings: Homo sapiens, read-out: Inhibition of Viability, EC50
Description: as §1

SU-DHL-2 = assay: Cell Titer Glo viability assay, SU-DHL-2; type: cell-based; settings: Homo sapiens, read-out: Inhibition of Viability, EC50
Description: as §1

OCI-LY3 = assay: Cell Titer Glo viability assay, OCI-LY3; type: cell-based; settings: Homo sapiens, read-out: Inhibition of Viability, EC50
Description: as §1

SU-DHL-4 = assay: Cell Titer Glo viability assay, SU-DHL-4; type: cell-based; settings: Homo sapiens, read-out: Inhibition of Viability, EC50
Description: as §1

[1] = tested on: 10 diffuse large B-cell lymphoma (DLBCL), 4 multiple myeloma (MM), 2 follicular lymphoma (FL), and 1 mantle cell lymphoma (MCL) cell lines; assay: Cell Titer Glo viability assay, summary over all cell lines tested; type: cell-based; settings: at concentrations <10000 nM
Description: as §1

Karpas 422 = assay: Cell Titer Glo viability assay, Karpas 422; type: cell-based; settings: Homo sapiens, read-out: Inhibition of Viability, EC50
Description: as §1

OCI-LY19 = assay: Cell Titer Glo viability assay, OCI-LY19; type: cell-based; settings: Homo sapiens, read-out: Inhibition of Viability, EC50
Description: as §1

Pfeiffer = assay: Cell Titer Glo viability assay, Pfeiffer; type: cell-based; settings: Homo sapiens, read-out: Inhibition of Viability, EC50
Description: as §1

OCI-LY4 = assay: Cell Titer Glo viability assay, OCI-LY4; type: cell-based; settings: read-out: Inhibition of Viability, EC50
Description: as §1

SU-DHL-10 = assay: Cell Titer Glo viability assay, SU-DHL-10; type: cell-based; settings: Homo sapiens, read-out: Inhibition of Viability, EC50
Description: as §1

MM1.S = assay: Cell Titer Glo viability assay, MM1.S; type: cell-based; settings: Homo sapiens, read-out: Inhibition of Viability, EC50
Description: as §1

OPM-2 = assay: Cell Titer Glo viability assay, OPM-2; type: cell-based; settings: Homo sapiens, read-out: Inhibition of Viability, EC50
Description: as §1

[2] = Cell Titer Glo viability assay, summary over all cell lines tested; type: cell-based; settings: B-cell; range over the 17 cell lines of Table 1; read-out: EC50 values to inhibit cell viability, range over cell lines
Description: as §1

[3] = in vivo; cited from earlier work
[4] = Homo sapiens, 72 h, read-out: Inhibition of cell viability EC50, No Compound of Formula I
[5] = read-out: Inhibition of cell viability EC50, +300 nM Compound of Formula I, DHL-10, in combination with 300 nM compound of Formula I, 72 hours

SMILES: COc1cc2c(c(OC)c1OC)-c1ccc(OC)c(=O)cc1[C@@H](NC(C)=O)CC2 [Colchicine, colchicine]
- Fold shift (DHL-10; DHL-10): 1.0
- EC50 (DHL-10; [4]): 0.0135 µM
- EC50 (DHL-10; [5]): 0.0142 µM

SMILES: COc1ccc(/C=C\c2cc(OC)c(OC)c(OC)c2)cc1O [Combretastatin A4, combretastatin A4]
- Fold shift (DHL-10; DHL-10): 1.2
- EC50 (DHL-10; [5]): 0.0048 µM
- EC50 (DHL-10; read-out: Inhibition of cell viability EC50, No Compound of Formula I, DHL-10, compound alone, 72 hours): 0.0059 µM

SMILES: O=P1(N(CCCl)CCCl)NCCCO1 (centres unmarked) [Cyclophosphamide, cyclophosphamide]
- EC50 (Mino; MINO, 72 h): > 10 µM
- EC50 (RPMI-8266; RPMI8266, 72 h): > 10 µM
- EC50 (SU-DHL-6; SU-DHL-6, 72 h): > 10 µM
- EC50 (OCI-LY7; OCI-Ly7, 72 h): > 10 µM
- EC50 (WSU-NHL; 72 h): > 10 µM
- EC50 (WSU-FSCCL; 72 h): > 10 µM
- EC50 (KMS-11; KMS-11, 72 h): > 10 µM
- EC50 (SU-DHL-2; SU-DHL-2, 72 h): > 10 µM
- EC50 (OCI-LY3; OCI-Ly3, 72 h): > 10 µM
- EC50 (SU-DHL-4; SU-DHL-4, 72 h): > 10 µM
- inhibition of cell viability in any of the cell lines tested [1]: did not show inhibition cell viability
- EC50 (Karpas 422; KARPAS-422, 72 h): > 10 µM
- EC50 (OCI-LY19; OCI-LY19, 72 h): > 10 µM
- EC50 (Pfeiffer; 72 h): > 10 µM
- EC50 (OCI-LY4; 72 h): > 10 µM
- EC50 (SU-DHL-10; SU-DHL10, 72 h): > 10 µM
- EC50 (MM1.S; 72 h): > 10 µM
- EC50 (OPM-2; OPM-2, 72 h): > 10 µM

SMILES: COc1cccc2c1C(=O)c1c(O)c3c(c(O)c1C2=O)C[C@@](O)(C(=O)CO)C[C@@H]3O[C@H]1C[C@H](N)[C@H](O)[C@H](C)O1 [Doxorubicin, doxorubicin]
- EC50 (Mino; Mino, MCL, single agent, 72 hours): 0.114 µM
- EC50 (RPMI-8266; RPMI8266, RPMI-8266, MM, single agent, 72 hours): 0.176 µM
- EC50 (SU-DHL-6; SU-DHL-6, DLBCL, single agent, 72 hours): 0.125 µM
- EC50 (OCI-LY7; OCI-LY7, DLBCL, single agent, 72 hours): 0.199 µM
- EC50 (DHL-10; [4]): 0.152 µM
- EC50 (DHL-10; [5]): 0.161 µM
- EC50 (WSU-NHL; FL, single agent, 72 hours): 0.128 µM
- EC50 (WSU-FSCCL; WSU-FSCCL, FL, single agent, 72 hours): 0.052 µM
- EC50 (KMS-11; KMS-11, MM, single agent, 72 hours): 0.469 µM
- EC50 (SU-DHL-2; SU-DHL-2, DLBCL, single agent, 72 hours): 0.216 µM
- EC50 (OCI-LY3; OCI-LY3, DLBCL, single agent, 72 hours): 0.026 µM
- EC50 (SU-DHL-4; SU-DHL-4, DLBCL, single agent, 72 hours): 0.215 µM
- EC50 [2]: 0.0031 to 0.557 µM
- EC50 (Karpas 422; Karpas 422, DLBCL, single agent, 72 hours): 0.305 µM
- EC50 (OCI-LY19; OCI-LY19, DLBCL, single agent, 72 hours): 0.0031 µM
- EC50 (Pfeiffer; DLBCL, single agent, 72 hours): 0.198 µM
- EC50 (OCI-LY4; OCI-LY4, DLBCL, single agent, 72 hours): 0.037 µM
- EC50 (SU-DHL-10; SU-DHL10, SU-DHL-10, DLBCL, single agent, 72 hours): 0.195 µM
- EC50 (MM1.S; MM, single agent, 72 hours): 0.066 µM
- EC50 (OPM-2; OPM-2, MM, single agent, 72 hours): 0.557 µM

SMILES: CC(=O)O[C@H]1C(=O)[C@@]2(C)[C@H]([C@H](OC(=O)c3ccccc3)[C@]3(O)C[C@H](OC(=O)[C@H](O)[C@@H](NC(=O)c4ccccc4)c4ccccc4)C(C)=C1C3(C)C)[C@]1(OC(C)=O)CO[C@@H]1C[C@@H]2O [Taxol, taxol]
- EC50 (DHL-10; [4]): 0.0071 µM
- EC50 (DHL-10; [5]): 0.0056 µM

SMILES: CC[C@]1(O)C[C@@H]2CN(CCc3c([nH]c4ccccc34)[C@@](C(=O)OC)(c3cc4c(cc3OC)N(C)[C@H]3[C@@](O)(C(N)=O)[C@H](O)[C@]5(CC)C=CCN6CC[C@]43[C@@H]65)C2)C1 [Vindesine, vindesine]
- serum half-life [3]: 24 h

From patent US10080756B2, “Combination methods for treating cancers” (Gilead Sciences, Inc., priority 2014, dated 2018)
